Assay results from the NIST ThermoML archive (doi:10.1021/je300076y).
Numbers after ± are expanded uncertainties.

What was measured:
[1] = refractive index (Na D-line) (dimensionless); settings: 101.33 kPa, Liquid, Standard Abbe refractometry
[2] = Liquid; for mass density: 293.15 K, 101.33 kPa, Vibrating tube method

refractive index ([1]; 293.15 K)	mass density [2] [kg/m3]	vapor or sublimation pressure ([2]; 353.61 K) [kPa]	vapor or sublimation pressure ([2]; 353.71 K) [kPa]	refractive index ([1]; 293.1 K)	vapor or sublimation pressure ([2]; 472.25 K) [kPa]	vapor or sublimation pressure ([2]; 439.35 K) [kPa]	SMILES
1.3877 ± 0.0007	788.4 ± 0.3	95.5 ± 2.5	95.5 ± 2.5				CC(C)(C)O [2-methylpropan-2-ol]
	1024.5 ± 0.3			1.537 ± 0.0008	95.5 ± 2.5		CC(=O)c1ccccc1 [acetophenone]
1.3835 ± 0.0007	935 ± 0.3					95.5 ± 2.5	CCO[Si](OCC)(OCC)OCC [tetraethoxysilane]
